Where a SMILES comes first, the peptide text is derived from it. [ ]: non-standard residue; d: D form. ξ: configuration not given here. ξW = NC(Cc1c[nH]c2ccccc12)C(=O)O

As usually defined, the logP is the decadic logarithm of the partition coefficient of the neutral form, usually between octanol and water. A low value points to lower lipophilicity.

The compound `CCCOC(=O)C=COc1ccccc1` came in with a log partition coefficient (logP) of 3.72. The compound `CN1CCN(CCn2nc3ccccc3n2)CC1` returned a logP of 0.74. With `COC(=O)C(C)NP(=O)(OCC1C=CC(n2cc(C)c(=O)[nH]c2=O)O1)Oc1ccc([N+](=O)[O-])cc1` (centres undefined) the figure was 0.9; with `Cc1cc(=O)oc2c1cc(C)c1occ(C)c12`, 3.23.

For `Cc1oc2cc3oc(=O)ccc3cc2c1C`, the logP is 2.93. `Clc1ccccc1N1CCN(CCn2nc3ccccc3n2)CC1`: the logP is 4. `COc1ccc(-c2cc(=O)ss2)cc1` displayed a logP of 3.19. `O=C(NO)NN=Cc1cccc(C(F)(F)F)c1` registered a lipophilicity (logP) of 1.64. The result for `CN1COCc2c1ccc1cc3ccc(N)c(CO)c3nc21` reads 1.64. With `CC(=O)c1ccc(Cl)cc1O` the figure was 2.97; with `OCC1OC(n2cnc3c(NCCCc4ccccc4)ncnc32)C(O)C1O` (centres undefined), 1.92. For the compound `CCC(C)C(NC(=O)CNC(=O)C(C)NC(=O)CNC(=O)C(N)Cc1ccccc1)C(=O)O` (centres undefined) (H-FGAGI-OH; configuration not given here), the lipophilicity (logP) was -1.87. In the case of `C1CCSC1`, the logP was found to be 1.61.

The compound `CN(C)CCC(c1ccccc1)c1ccccc1` registered a lipophilicity (logP) of 4.31. The compound `COC1(OC)C(N2CCOCC2)=NC(=O)N1c1ccc(Cl)cc1` yielded a logP of 1.7. The result for `CC(C(=O)O)c1ccc(OCc2ccccc2)c(F)c1` (centres undefined) reads 3.61; that for `COc1cccc(C(O)C(C(=O)O)c2ccc(-c3ccccc3)cc2)c1` (centres undefined), 3.53. Consider `CC(=O)OCCOC(=O)C(C)c1cccc(C(=O)c2ccccc2)c1` (centres undefined), for which the lipophilicity (logP) turned out to be 3.1. The result for `COc1ccc(CCNCC(O)COc2ccc(-c3nc(C(C)C)c[nH]3)cc2)cc1OC` (centres undefined) reads 3.9; that for `Cc1cc2c(ccc3c(C)cc(=O)oc32)o1`, 3.08; that for `NC(=O)c1cccc(Cc2ncccn2)c1`, 0.28.

For `COc1ccc(C2Cc3c(cccc3C(F)(F)F)N(CCN(C)C)C(=O)C2OC(C)=O)cc1` (centres undefined), the logP was 4.9. The result for `O=C1Nc2ccc(Cl)cc2C(c2ccccc2F)=NC1O` (centres undefined) reads 1.81; that for `Cn1c(N)nc2ncc(-c3ccccc3)cc21`, 2.23. The result for `Cc1ccc(CO)c(C=NNC(=O)c2ccc([N+](=O)[O-])cc2)c1O` reads 3.03. With `O=C1C=C(N2CCCCCC2)CN1c1ccc(Cl)cc1` the figure was 3.4; with `CCCCCCCCCCNCCO`, 3.62. Compound `CC(O)CN(C)C` (centres undefined) returned a logP of 0.2. As to `CCCC(=NOCC)C1=C(O)CC(C)(C2CC2)OC1=O` (centres undefined), the logP worked out at 3.28. The result for `CCOc1cccc(CNc2[nH]cnc3ncnc2-3)c1` reads 2.57; that for `O=C(O)C1CSC(c2ccc(O)cc2O)=N1` (centres undefined), 1.1.

`COc1ccc(C2Cc3cc(SC)ccc3N(CCN(C)C)C(=O)C2OC(C)=O)cc1` (centres undefined) returned a logP of 4. As to `CC1(C)C=[N+]([O-])C(C)(C)C1`, the logP is -0.15. With `CCCCCCCCNC(=O)N1C(=O)N(C)CC1O` (centres undefined) the figure was 3.46; with `CC1(C)OC23CC1CCC2CCCC3(C)O` (centres undefined), 3.57; with `CC1(C)SC2C(NC(=O)C(c3ccccc3)S(=O)(=O)O)C(=O)N2C1C(=O)O` (centres undefined), -0.22. With `COc1ccc(-c2ccoc2)cc1CNC1CCCNC1c1ccccc1` (centres undefined) the figure was 4.2. The result for `Cc1cccc2c1OCN(CCO[N+](=O)[O-])C2=O` reads 2.48; that for `COc1cccc2nc(N)nc(N)c12`, 1.18; that for `Cc1nc2c3c(c(C(=O)Nc4ccccc4)cn2c1C)CCC(c1ccccc1)O3` (centres undefined), 5.9.

Consider `CC(=O)OCC1OC(n2ccc(=O)[nH]c2=O)C(OC(C)=O)C1OC(C)=O` (centres undefined), for which the log partition coefficient (logP) was -0.36. With `CCNc1nc(N)nc(OC)n1` the figure was 0.89; with `CCNN=Nc1ccc(C(N)=O)cc1`, 1.19; with `Cc1c2oc(=O)ccc2c(C)c2c(C)coc12`, 3.35. With `COc1cccc(-n2nnnc2N)c1` the figure was 0.96; with `CC(C)C(C)NC(CO)C(O)c1ccccc1` (centres undefined), 1.61. With `CCNc1[nH]cnc2ncnc1-2`, the logP worked out at 0.92. As for `COc1ccc(CCNCC(O)COc2ccc(-c3nc(-c4cccs4)c[nH]3)cc2C)cc1OC` (centres undefined), the lipophilicity (logP) was 4.8. The result for `CC(C)NC(=S)NS(=O)(=O)c1cnccc1NC1CCCCCCC1` reads 4.2; that for `CCCC(=NOCC)C1=C(O)CC2(CCC(CC)CC2)OC1=O` (centres undefined), 4.47; that for `O=C(NC1CCCCCC1)NS(=O)(=O)c1cnccc1NC1CCCCCCC1`, 5.35.

For `Cc1nc2ccccc2c(=O)n1CC(=O)O`, the lipophilicity (logP) came to 0.38.

Take `NCC(=O)NC(Cc1ccccc1)C(=O)NC(Cc1ccc(O)cc1)C(=O)O` (stereo not drawn) (H-Gly-Phe-Tyr-OH; configuration not given here): the logP is -1.96.

In the case of `C=CCN(N=O)C(=O)N(CCCC(NC(C)=O)C(=O)NCc1ccccc1)Cc1ccccc1` (centres undefined), the log partition coefficient (logP) worked out at 2.16.

As to `COc1ccc(CCNCC(O)COc2ccc(-c3nc(C(C)(C)C)c[nH]3)cc2)cc1OC` (centres undefined), the log partition coefficient (logP) was 4.09. The result for `COC(=O)c1cc2ccc3cccc4ccc(c1)c2c34` reads 4.85. The result for `COc1ccc(CCNCC(O)COc2ccc(OCc3ncc[nH]3)cc2)cc1OC` (centres undefined) reads 2.6; that for `C=CCNC(=O)N(CCCC(NC(C)=O)C(=O)NCc1ccccc1)Cc1ccccc1` (centres undefined), 1.44; that for `COc1ccc(C(=O)N2CCN(c3ccc4c(c3)CCC(=O)N4)CC2)cc1OC`, 1.04. The result for `O=C1C=C(N2CC2)C(=O)C=C1N1CC1` reads 0.18; that for `CCCOc1cccc(CNc2[nH]cnc3ncnc2-3)c1`, 3.12. Compound `Cc1cc(CCCCCCCOc2ccc(C3=NCCO3)cc2)on1` showed a logP of 4.79.

Take `CCCCCOCCCNc1ncnc2c1ncn2C1OC(CO)C(O)C1O` (centres undefined): the logP turned out to be 1.82. With `CCCc1c2c(cc3c(=O)cc(C(=O)O)oc13)CCCC2` the figure was 4.2; with `C#CCN(N=O)C(=O)NCCCCC(NC(C)=O)C(=O)NCc1ccccc1` (centres undefined), 1.64. With `NC1=NCC(COc2ccc(-c3ccccc3)cc2)O1` (centres undefined) the figure was 2.8. The result for `Brc1c2ccccc2c(Br)c2ccccc12` reads 6.29. For `O=S(=O)(NC(=S)N1CCCCC1)c1cnccc1NC1CCCCCC1`, the logP came to 4.15. The result for `CCCCCOC1CCC(NC(=O)NC23CC4CC(CC(C4)C2)C3)CC1` (centres undefined) reads 5.

Turning to `CCCc1nc(NC(=O)c2ccccc2)nc(N2CCOCC2)n1`, the lipophilicity (logP) is 1.61.

Turning to `CCCCNC(=O)Cn1cccc(O)c1=O`, the logP worked out at 0.33.

Take `CNC(=S)OCCn1c([N+](=O)[O-])cnc1C`: the lipophilicity (logP) was 1.12.

`C[C@]12CC[C@@H](O)C[C@@H]1CC[C@@H]1[C@@H]2CC[C@]2(C)[C@@H](O)CC[C@@H]12` registered a logP of 4.16. Consider `NCC(=O)NC(Cc1c[nH]c2ccccc12)C(N)=O` (centres undefined) (H-Gly-[ξW]-NH2), for which the log partition coefficient (logP) was -0.48. The result for `O=C1C=C(N2CCOCC2)C(=O)N1c1ccc(Cl)cc1` reads 2.3; that for `Cc1cc2c(o1)c(C)cc1ccc(=O)oc12`, 2.85; that for `CCC(C)NC(=O)NN` (centres undefined), -0.84. `CC(=O)NC(CCCNC(=O)N(CCCl)N=O)C(=O)NCc1ccccc1` (centres undefined) registered a logP of 1.33. Take `CCc1ccc(CNc2[nH]cnc3ncnc2-3)cc1`: the logP turned out to be 3.17. With `CCC(=O)Nc1ccc(OCC(O)CNC(C)C)cc1` (centres undefined) the figure was 1.02; with `COC(=O)Nc1c(C)cccc1C`, 1.69; with `CC(C)CC(N)C(=O)NC(CC(C)C)C(=O)NC(CC(C)C)C(=O)NC(C(=O)O)C(C)C` (centres undefined) (H-LLLV-OH; configuration not given here), -0.51. On to `CCON=C(CC)C1=C(O)CC(c2cccc(Oc3ncc(C(F)(F)F)cc3F)c2)CC1=O` (centres undefined), for which the logP was 4.63. In turn, `O=[N+]([O-])c1ccc2c(c1)-c1ccccc1C2` yielded a lipophilicity (logP) of 3.99. With `OCCCCCCCNc1[nH]cnc2ncnc1-2` the figure was 1.73; with `O=C(Nc1ncc([N+](=O)[O-])s1)c1ccc(Cl)c(Cl)c1`, 4.14; with `COC(=O)c1c(Oc2nc(OC)cc(OC)n2)cccc1C(C)=NOCc1ccccc1`, 4.01.

On to `CC(C)NC(=NC#N)NS(=O)(=O)c1cnccc1NCc1ccccc1`, for which the logP amounted to 1.36. Take `Cc1nc2c3c(c(C(=O)N(C)C)cn2c1C)CCC(c1cccs1)O3` (centres undefined): the logP is 2.8. Regarding `NC1=NCC(CN2CCC(Cc3ccccc3)CC2)O1` (centres undefined), the logP stood at 2.38. As to `CN1CCc2ccccc2C1`, the logP amounted to 2.14. With `O=C1c2cc(O)ccc2OCN1CCO[N+](=O)[O-]` the figure was 1.63. With `CC(C)CC(NC(=O)C(N)Cc1c[nH]c2ccccc12)C(=O)NC(Cc1ccccc1)C(=O)NC(C)C(=O)NC(C)C(=O)O` (centres undefined) (H-WLFAA-OH; configuration not given here) the figure was -0.32; with `O=[N+]([O-])c1nccn1COCC=CCO`, -0.28.

For the compound `COc1cccc(C=[N+]([O-])C(C)(C)C)c1`, the log partition coefficient (logP) came out at 1.4. The result for `O=C1C=C(N2CCCCC2)C(=O)N1c1ccc(F)cc1` reads 2.6. The result for `Clc1cc(Cl)c(-c2cc(Cl)cc(Cl)c2Cl)c(Cl)c1` reads 6.87. The result for `CCC(C)C(NC(=O)C(C)NC(=O)C(CC(C)C)NC(=O)C(N)CO)C(=O)NC(C(=O)O)C(C)C` (centres undefined) (H-SLAIV-OH; configuration not given here) reads -1.94.

Compound `CCc1cccc(CNc2[nH]cnc3ncnc2-3)c1` showed a logP of 2.98.

With `CCOc1ccccc1NC(=O)OC1C(CN(CC)CC)C2CCC1(C)C2(C)C` (centres undefined), the lipophilicity (logP) was 5.8. As for `OCCCCCNc1[nH]cnc2ncnc1-2`, the logP was determined as 0.72. With `Clc1cc(Cl)c2c(oc3cccc(Cl)c32)c1Cl` the figure was 5.89. The compound `CCCC(=NOCC)C1=C(O)CC2(CCC(CC(C)(C)C)CC2)OC1=O` (centres undefined) showed a lipophilicity (logP) of 5.3. With `COP(=O)(OC)Oc1c(Cl)cc(C)cc1Cl` the figure was 2.66. With `CN(C)CCOc1ccc(Cl)cc1` the figure was 3.05; with `COc1ccc2cc(C(C)C(=O)OCCCOC(C)=O)ccc2c1` (centres undefined), 3.3. The result for `O=[N+]([O-])c1ccc(-n2cccn2)cc1` reads 2.25; that for `Nc1nc(N)c2c(OCc3ccccc3)cccc2n1`, 2.82; that for `COc1ccc(Nc2nc(N)nc(O)n2)cc1OC`, 1.76.

(Values after the OPERA property sets (Mansouri et al. 2018).)
